Measurements as given in patent publication US12565475B2, “Small molecule compound inhibiting signal transmission path of TLR7 and TLR9 and use thereof” (AJOU UNIVERSITY INDUSTRY-ACADEMIC COOPERATION FOUNDATION, priority 2019, dated 2026).

Molecular target: T1, TLR8 (Homo sapiens, UniProt Q9NR97)
T1 construct: treated with TIC10-7 for 1 hour, and then treated with TL8-506 as a TLR8 agonist for 4 hours; endogenous in cells; host or cells: THP-1 differentiated with PMA
T1 sequence (Q9NR97 27-1041): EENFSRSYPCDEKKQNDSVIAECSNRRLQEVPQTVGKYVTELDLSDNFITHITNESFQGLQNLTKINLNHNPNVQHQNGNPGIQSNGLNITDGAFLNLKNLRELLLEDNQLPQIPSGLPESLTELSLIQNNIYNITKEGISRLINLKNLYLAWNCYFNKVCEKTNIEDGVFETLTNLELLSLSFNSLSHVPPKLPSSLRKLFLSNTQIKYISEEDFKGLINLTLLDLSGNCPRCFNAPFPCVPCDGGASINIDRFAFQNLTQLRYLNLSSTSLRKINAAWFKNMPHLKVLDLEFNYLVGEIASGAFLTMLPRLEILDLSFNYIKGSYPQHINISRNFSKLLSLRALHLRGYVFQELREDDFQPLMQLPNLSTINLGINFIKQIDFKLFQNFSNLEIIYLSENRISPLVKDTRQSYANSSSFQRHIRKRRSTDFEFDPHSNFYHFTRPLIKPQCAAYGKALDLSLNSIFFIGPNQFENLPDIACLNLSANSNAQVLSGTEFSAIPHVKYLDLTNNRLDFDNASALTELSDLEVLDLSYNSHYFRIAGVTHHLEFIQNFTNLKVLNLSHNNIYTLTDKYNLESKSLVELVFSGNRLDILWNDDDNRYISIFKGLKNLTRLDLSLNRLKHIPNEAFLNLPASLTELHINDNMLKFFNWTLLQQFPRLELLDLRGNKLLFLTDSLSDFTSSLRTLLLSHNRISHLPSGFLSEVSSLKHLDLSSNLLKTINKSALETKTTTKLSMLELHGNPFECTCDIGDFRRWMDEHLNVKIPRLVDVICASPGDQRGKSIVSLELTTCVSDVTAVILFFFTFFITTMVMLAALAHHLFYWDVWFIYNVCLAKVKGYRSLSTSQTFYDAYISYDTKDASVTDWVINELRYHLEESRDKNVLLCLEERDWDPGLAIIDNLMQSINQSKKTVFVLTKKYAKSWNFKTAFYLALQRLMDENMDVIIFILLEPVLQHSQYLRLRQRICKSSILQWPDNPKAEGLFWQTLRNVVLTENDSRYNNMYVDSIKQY
Assay: TLR8-mediated TNF-α secretion (TL8-506) in PMA-differentiated THP-1 cells, ELISA
Type: cell-based
Settings: differentiated THP-1, 10 or 20 μM
Protocol: A murine macrophage cell line (RAW 264.7) was obtained from the Korean Cell Line Bank (KCLB) and the Korean Cell Line Research Foundation (KCLRF). The cells were cultured in DMEM (Dulbecco's modified Eagle's medium; HyClone Laboratories, Inc., San Angelo, Texas, USA) supplemented with 1% penicillin/streptomycin (HyClone Laboratories, Inc.) antibiotic mixture and 10% fetal bovine serum (FBS; Thermo Fisher Scientific, Inc., Waltham, MA, USA). A human monocytic cell line (THP-1) was provided by Dr. Chang-Hee Suh, Ajou University School of Medicine, Suwon, Korea. […]
Agonists specific to TLR1/TLR2 (Pam3CSK4), TLR2/TLR6 (FSL-1), TLR3 (Poly I:C), TLR7 (imiquimod), and TLR8 (TL8-506) were purchased from InvivoGen Ltd. (Hong-Kong, China), and a TLR4-specific agonist (LPS from E. coli O111:B4) was purchased from Sigma-Aldrich, Inc. For TLR9-specific stimulation, class C CpG-ODN (ODN2395, 5′-TCGTCGTTTTCGGCGCGCGCCG-3′) having full phosphorothioate backbone modification was synthesized (Bioneer, Inc., Daejeon, Korea). […] The cells were treated with test compounds or a control medium for 1 hour, and then stimulated with a TLR agonist for 4 hours, or 24 hours in the case of poly(I:C), and the cytokine secretion was monitored. […]

TLR8-mediated TNF-α secretion: least affected
SMILES: COc1ccc(CNc2ncc(-c3ccc4c(c3)OCO4)n2C)c(OC)c1 [TIC10-7, 5-(2H-1,3-benzodioxol-5-yl)-N-[(2,4-dimethoxyphenyl)methyl]-1-methyl-1H-imidazol-2-amine]
